From PMC9719791 (Science translational medicine, 2021)

Target: SUMO activating enzyme (SAE) (Homo sapiens, UniProt Q9UBE0+Q9UBT2)
Assay: E1-E2 HTRF transthiolation assay with recombinantly purified SAE
Format: biochemical

Sequence of SUMO activating enzyme (SAE) (Q9UBT2 whole entry): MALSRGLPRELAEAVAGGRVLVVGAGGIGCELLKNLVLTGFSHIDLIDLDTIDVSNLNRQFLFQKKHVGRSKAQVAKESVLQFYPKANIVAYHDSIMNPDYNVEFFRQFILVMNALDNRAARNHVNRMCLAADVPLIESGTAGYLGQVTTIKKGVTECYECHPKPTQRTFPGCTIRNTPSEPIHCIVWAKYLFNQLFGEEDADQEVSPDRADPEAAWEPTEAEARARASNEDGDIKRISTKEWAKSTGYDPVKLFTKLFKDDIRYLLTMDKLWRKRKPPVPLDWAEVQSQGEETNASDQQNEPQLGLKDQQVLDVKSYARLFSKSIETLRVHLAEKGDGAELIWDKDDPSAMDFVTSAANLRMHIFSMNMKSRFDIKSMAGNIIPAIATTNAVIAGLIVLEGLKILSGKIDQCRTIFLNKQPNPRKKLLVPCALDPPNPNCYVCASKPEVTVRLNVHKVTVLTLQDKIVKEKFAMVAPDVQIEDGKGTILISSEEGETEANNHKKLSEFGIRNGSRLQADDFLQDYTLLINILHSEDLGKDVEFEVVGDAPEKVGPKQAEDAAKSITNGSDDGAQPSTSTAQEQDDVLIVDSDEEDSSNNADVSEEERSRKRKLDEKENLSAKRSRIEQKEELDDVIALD
Sequence of SUMO activating enzyme (SAE) (Q9UBE0 whole entry): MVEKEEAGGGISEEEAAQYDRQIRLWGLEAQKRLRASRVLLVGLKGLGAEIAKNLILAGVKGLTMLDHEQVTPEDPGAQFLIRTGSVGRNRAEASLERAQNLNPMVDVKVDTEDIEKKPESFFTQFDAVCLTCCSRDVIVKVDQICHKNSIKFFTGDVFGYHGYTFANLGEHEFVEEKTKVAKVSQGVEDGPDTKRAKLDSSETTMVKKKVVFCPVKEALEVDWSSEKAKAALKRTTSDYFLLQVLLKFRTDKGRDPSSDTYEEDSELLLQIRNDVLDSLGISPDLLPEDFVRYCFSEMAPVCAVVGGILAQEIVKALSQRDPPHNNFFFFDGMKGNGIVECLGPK
Sequence of SUMO activating enzyme (SAE) (P63279 2-158 partner): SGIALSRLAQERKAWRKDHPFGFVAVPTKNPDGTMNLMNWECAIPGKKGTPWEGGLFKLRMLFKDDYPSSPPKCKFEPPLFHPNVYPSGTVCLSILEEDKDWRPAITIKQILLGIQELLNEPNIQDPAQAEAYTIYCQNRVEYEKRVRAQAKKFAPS

## Cc1sc(C(=O)c2cncnc2N[C@@H]2C[C@H](COS(N)(=O)=O)[C@@H](O)C2)cc1[C@@H]1NCCc2ccc(Cl)cc21 [TAK-981, ((1R,2S,4R)-4-((5-(4-((1R)-7-chloro-1,2,3,4-tetrahydroisoquinolin-1-yl)-5-methylthiophene-2-carbonyl)pyrimidin-4-yl)amino)-2-hydroxycyclopentyl)methyl sulfamate]
  IC50: 0.6 nM
